Laboratory results as given in US20260217699A1, “BERBERINE TAUROURSODEOXYCHOLATE COMPOSITIONS AND METHODS THEREOF” (SHENZHEN HIGHTIDE BIOPHARMACEUTICAL LTD., priority 2023, published 2026).
Read-outs that look alike come from different tables or passages of the source.

Assays:
[1] = type: physicochemical; settings: for Purity/%: initial purity 99.45%
Description: The standard XRPD patterns were collected using a Panalytical EMPYREAN (PANalytical, UK). The X-ray source was a Cu tube that was operated at 45 kV and 40 mA. Powder samples were prepared on zero-background Si holders using manual light pressure to keep the sample surface flat. Each sample was analyzed from 3 to 45° (2θ) with an effective step size of 0.013° 20. The measurement time of each sample was 3.5 min.
The stability of Form A was studied under high temperature (60° C.), high humidity (25° C./92.5% RH), light (25° C./4500 Lux), and accelerated (40° C./75% RH) conditions, and the samples were taken at 7 and 15 days for XRPD characterization and HPLC tests, respectively, and the results are shown in Tables 3-4 and FIG. 17.

[2] = Rapid dynamic vapor sorption (Fast DVS) of Form A; type: physicochemical
Description: (§1) The synthesized BTUDC was designated as crystalline form A (Form A), and its XRPD diffraction and other related characterization data are shown in FIGS. 11-15. […] (peak at 43° C.), and an endothermic peak at about 280° C.

[3] = Thermal transcrystallization experiment (variable temperature XRPD); type: physicochemical; settings: heating to 150° C. and back to room temperature
Description: The form conversion by heating was carried out using an online variable temperature XRPD Malvern PANalytical Aeris (Malvern Panalytical, UK). The X-ray source was a Cu tube that was operated at 40 kV and 7.5 mA. Powder samples were prepared on zero-background Si holders using manual light pressure to keep the sample surface flat. Each sample was analyzed from 3 to 40° (2θ) with an effective step size of 0.02° 20. The measurement time of each sample was 13 min. The sample was placed on a BTS500 hot stage (Anton Paar, AT) to collected XRPD at RT, heated to the target temperature at 20° C./min and held for 10 min before XRPD analysis. The sample was then cooled to RT and characterized by XRPD.
as §1

[4] = Accelerated 40° C./75% RH, 7 Days
[5] = Accelerated 40° C./75% RH, 15 Days
[6] = High Humidity 25° C./92.5% RH, 7 Days
[7] = High Humidity 25° C./92.5% RH, 15 Days
[8] = Light Exposure 25° C./4500 Lux, 7 Days
[9] = Light Exposure 25° C./4500 Lux, 15 Days

Compound: COc1ccc2cc3[n+](cc2c1OC)CCc1cc2c(cc1-3)OCO2.C[C@H](CCC(=O)NCCS(=O)(=O)[O-])[C@H]1CC[C@H]2[C@@H]3[C@@H](O)C[C@@H]4C[C@H](O)CC[C@]4(C)[C@H]3CC[C@]12C [Form A, berberine tauroursodeoxycholate]
- XRPD Changes [1, 4]: No
- Purity/% [1, 4]: 99.44%
- XRPD Changes [1, 5]: No
- Purity/% [1, 5]: 99.41%
- Relative Peak Area (%) ([1]; HPLC main peak RRT 1.00, Accelerated 15 Days, Day 0: 99.45): 99.41%
- Relative Peak Area (%) ([1]; HPLC main peak RRT 1.00, High Humidity 15 Days, Day 0: 99.45): 99.44%
- Relative Peak Area (%) ([1]; HPLC main peak RRT 1.00, High Temp. 15 Days, Day 0: 99.45): 99.24%
- Relative Peak Area (%) ([1]; HPLC main peak RRT 1.00, Light Exposure 15 Days, Day 0: 99.45): 98.53%
- Relative Peak Area (%) ([1]; HPLC peak RRT 0.39, Light Exposure 15 Days, Day 0: /): 0.05%
- Relative Peak Area (%) ([1]; HPLC peak RRT 0.55, Light Exposure 15 Days, Day 0: /): 0.06%
- Relative Peak Area (%) ([1]; HPLC peak RRT 0.70, Accelerated 15 Days, Day 0: 0.05): 0.07%
- Relative Peak Area (%) ([1]; HPLC peak RRT 0.70, High Humidity 15 Days, Day 0: 0.05): 0.07%
- Relative Peak Area (%) ([1]; HPLC peak RRT 0.70, High Temp. 15 Days, Day 0: 0.05): 0.10%
- Relative Peak Area (%) ([1]; HPLC peak RRT 0.70, Light Exposure 15 Days, Day 0: 0.05): 0.77%
- Relative Peak Area (%) ([1]; HPLC peak RRT 0.73, Light Exposure 15 Days, Day 0: /): 0.03%
- Relative Peak Area (%) ([1]; HPLC peak RRT 0.76, Light Exposure 15 Days, Day 0: /): 0.07%
- Relative Peak Area (%) ([1]; HPLC peak RRT 0.79, Light Exposure 15 Days, Day 0: /): 0.05%
- Relative Peak Area (%) ([1]; HPLC peak RRT 0.82, Accelerated 15 Days, Day 0: 0.13): 0.13%
- Relative Peak Area (%) ([1]; HPLC peak RRT 0.82, High Humidity 15 Days, Day 0: 0.13): 0.13%
- Relative Peak Area (%) ([1]; HPLC peak RRT 0.82, High Temp. 15 Days, Day 0: 0.13): 0.13%
- Relative Peak Area (%) ([1]; HPLC peak RRT 0.82, Light Exposure 15 Days, Day 0: 0.13): 0.11%
- Relative Peak Area (%) ([1]; HPLC peak RRT 0.84, Accelerated 15 Days, Day 0: 0.06): 0.07%
- Relative Peak Area (%) ([1]; HPLC peak RRT 0.84, High Humidity 15 Days, Day 0: 0.06): 0.06%
- Relative Peak Area (%) ([1]; HPLC peak RRT 0.84, High Temp. 15 Days, Day 0: 0.06): 0.06%
- Relative Peak Area (%) ([1]; HPLC peak RRT 0.84, Light Exposure 15 Days, Day 0: 0.06): 0.06%
- Relative Peak Area (%) ([1]; HPLC peak RRT 0.90, Accelerated 15 Days, Day 0: 0.31): 0.32%
- Relative Peak Area (%) ([1]; HPLC peak RRT 0.90, High Humidity 15 Days, Day 0: 0.31): 0.30%
- Relative Peak Area (%) ([1]; HPLC peak RRT 0.90, High Temp. 15 Days, Day 0: 0.31): 0.48%
- Relative Peak Area (%) ([1]; HPLC peak RRT 0.90, Light Exposure 15 Days, Day 0: 0.31): 0.27%
- XRPD Changes [1, 6]: No
- Purity/% [1, 6]: 99.44%
- XRPD Changes [1, 7]: No
- Purity/% [1, 7]: 99.44%
- XRPD Changes ([1]; High Temp. 60° C., 7 Days): No
- Purity/% ([1]; High Temp. 60° C., 7 Days): 99.28%
- XRPD Changes ([1]; High Temp. 60° C., 15 Days): No
- Purity/% ([1]; High Temp. 60° C., 15 Days): 99.24%
- XRPD Changes [1, 8]: No
- Purity/% [1, 8]: 98.92%
- XRPD Changes [1, 9]: No
- Purity/% [1, 9]: 98.53%
- change in chemical purity (HPLC) ([1]; high temperature, high humidity and accelerated conditions for 15 days): no significant change
- change in chemical purity (HPLC) ([1]; light conditions for 15 days): significant decrease
- adsorption weight gain ([2]; at 80% RH): about 0.46%
- desorption weight gain ([2]; at 80% RH): about 0.49%
- adsorption weight gain ([2]; at 95% RH): about 0.74%
- change in crystalline shape after the DVS test (XRPD) ([2]; compared to the pre-test): did not undergo any change in crystalline shape
- crystalline form during heating [3]: remained unchanged
